Measurements published in US9777045B2, “Immunogenic compositions and methods” (Longhorn Vaccines and Diagnostics, LLC, priority 2007, dated 2017).
Values joined by “and” are separate entries in the source; they are usually repeats but may differ in a detail not shown here. Equal values may be shown once.

Assays:
[1] = test system: live Wuhan (Influenza A/Wuhan/359/95, H3N2); experiment: ELISA for anti-Wuhan antibodies (mouse sera 1:100); format: in vivo, mice; settings: sera 1:100; for Absorbance values for individual sera tested on influenzavirus strain Wuhan, Pre: mice, pre-bleed; for Anti-Wuhan Absorbance Day 42 (group average) / Anti-Wuhan Absorbance Pre-Bleed (group average): averaged results
[2] = test system: IFN-γ induction in splenocytes; format: cell-based; settings: mice immunized with peptide-BSA conjugates; 72 h in vitro treatment
[3] = test system: peptide corresponding to the peptide-BSA conjugate used for injection; experiment: ELISA for anti-peptide antibodies (individual mouse sera 1:100); format: in vivo, mice; settings: for Average Absorbance Values of sera for tested peptides, Day 14 / Average Absorbance Values of sera for tested peptides, Day 29 / Average Absorbance Values of sera for tested peptides, Day 42 / Average Absorbance Values of sera for tested peptides, Pre: group average; for Average Absorbance Values of sera for tested peptides, Day 14 / Average Absorbance Values of sera for tested peptides, Day 29 / Average Absorbance Values of sera for tested peptides, Day 42 / Average Absorbance Values of sera for tested peptides, Pre / Individual absorbancy values of sera for tested peptides, Day 14 / Individual absorbancy values of sera for tested peptides, Day 29 / Individual absorbancy values of sera for tested peptides, Day 42: mice; for Average Absorbance Values of sera for tested peptides, Pre / Individual absorbancy values of sera for tested peptides, Pre: pre-bleed; for Individual absorbancy values of sera for tested peptides, Pre: mice injected with peptide-BSA conjugate, absorbance 450 nm; for Individual absorbancy values of sera for tested peptides, Pre / Individual absorbancy values of sera for tested peptides, Day 14 / Individual absorbancy values of sera for tested peptides, Day 29 / Individual absorbancy values of sera for tested peptides, Day 42: sera 1:100
Procedure: Individual sera were tested at a final dilution of 1:100 (in PBS-T) on Nunc Maxisorp® plates coated with the peptide corresponding to the peptide-BSA conjugate used for injection, at a concentration of 1 μg/ml in PBS (100 μl/well). One hundred microliters of diluted sera were reacted on the coated plate for 30 to 60 min at room temperature, and unbound material was removed by washing three times with PBS-T. Anti-peptide antibodies were detected with peroxidase-labeled goat anti-mouse IgG (γ-specific), diluted 1:10000 in PBS-T (100 μl/well; Jackson ImmunoResearch Laboratories, Inc., West Grove, Pa., USA). Following 30-min incubation, the wells were washed five times with PBS-T to removed unbound material and 100 μl of substrate (TMB; Kirkegaard & Perry Laboratories, Inc., Gaithersburg, Md., USA) was added to each well. The reaction was allowed to proceed for 15 min in the dark and stopped by addition of 100 μl of TMB Stop Solution per well (Kirkegaard & Perry). Absorbance was determined at 450 nm.

[4] = test system: Influenza H3N2 (Wuhan); set-up: species or system cotton rats (Sigmodon hispidus); settings: rat, in vivo
[5] = test system: live H1N1 virus; set-up: species or system cotton rats (Sigmodon hispidus); settings: rat, in vivo
[6] = test system: live H3N2 virus; format: in vivo, cotton rats (Sigmodon hispidus); settings: rat, in vivo
[7] = test system: IL-4 induction in splenocytes; format: cell-based; settings: mice immunized with peptide-BSA conjugates; 72 h in vitro treatment
[8] = test system: Influenza H1N1, H3N2, and H5N1; settings: in vivo
[9] = 5 μg per injection, listed as 1911

| Sequence | Absorbance values for individual sera tested on influenzavirus strain Wuhan, Pre ([1]; 5 μg per injection) | Absorbance values for individual sera tested on influenzavirus strain Wuhan, Pre ([1]; 20 μg per injection) | Anti-Wuhan Absorbance Day 42 (individual mice) ([1]; dose per inject 5 μg) | Anti-Wuhan Absorbance Pre-Bleed (individual mice) ([1]; dose per inject 5 μg) | Anti-Wuhan Absorbance Day 42 (individual mice) ([1]; dose per inject 20 μg) | Anti-Wuhan Absorbance Pre-Bleed (individual mice) ([1]; dose per inject 20 μg) | Anti-Wuhan Absorbance Day 42 (group average) ([1]; dose per injection 5 μg) | Anti-Wuhan Absorbance Pre-Bleed (group average) ([1]; dose per injection 5 μg) | Anti-Wuhan Absorbance Day 42 (group average) ([1]; dose per injection 20 μg) | Anti-Wuhan Absorbance Pre-Bleed (group average) ([1]; dose per injection 20 μg) | Average Absorbance Values of sera for tested peptides, Day 14 ([3]; 5 μg per injection) | Average Absorbance Values of sera for tested peptides, Day 29 ([3]; 5 μg per injection) | Average Absorbance Values of sera for tested peptides, Day 42 ([3]; 5 μg per injection) | Average Absorbance Values of sera for tested peptides, Pre ([3]; 5 μg per injection) | Average Absorbance Values of sera for tested peptides, Day 14 ([3]; 20 μg per injection) | Average Absorbance Values of sera for tested peptides, Day 29 ([3]; 20 μg per injection) | Average Absorbance Values of sera for tested peptides, Day 42 ([3]; 20 μg per injection) | Average Absorbance Values of sera for tested peptides, Pre ([3]; 20 μg per injection) | Individual absorbancy values of sera for tested peptides, Pre ([3]; 5 μg per injection) | Individual absorbancy values of sera for tested peptides, Pre ([3]; 20 μg per injection) | further results |
| --- | --- | --- | --- | --- | --- | --- | --- | --- | --- | --- | --- | --- | --- | --- | --- | --- | --- | --- | --- | --- | --- |
| HYEECSCY [Peptide 5911] | 0.060 and 0.073 and 0.063 and 0.067 | 0.065 and 0.069 and 0.084 and 0.070 | 0.154 and 0.174 and 0.136 and 0.165 | 0.067 and 0.060 and 0.073 and 0.063 | 0.747 and 0.194 and 0.154 and 0.134 | 0.065 and 0.069 and 0.084 and 0.070 | 0.157 | 0.065 | 0.307 | 0.072 | 0.264 | 0.213 | 0.347 | 0.156 | 0.171 | 0.229 | 0.342 | 0.132 | 0.126 and 0.187 and 0.137 | 0.099 and 0.109 and 0.151 and 0.121 | IFN-γ response of spleen cell supernatants (in words) [2]: Weaker responses; Individual absorbancy values of sera for tested peptides, Pre [3, 9]: 0.174; Individual absorbancy values of sera for tested peptides, Day 14 ([3]; 5 μg per injection): 0.184 and 0.503 and 0.154; Individual absorbancy values of sera for tested peptides, Day 14 [3, 9]: 0.216; Individual absorbancy values of sera for tested peptides, Day 29 ([3]; 5 μg per injection): 0.201 and 0.303 and 0.188; Individual absorbancy values of sera for tested peptides, Day 29 [3, 9]: 0.161; Individual absorbancy values of sera for tested peptides, Day 42 ([3]; 5 μg per injection): 0.392 and 0.497 and 0.300; Individual absorbancy values of sera for tested peptides, Day 42 [3, 9]: 0.199; Individual absorbancy values of sera for tested peptides, Day 14 ([3]; 20 μg per injection): 0.102 and 0.136 and 0.106 and 0.123; Individual absorbancy values of sera for tested peptides, Day 29 ([3]; 20 μg per injection): 0.145 and 0.240 and 0.152 and 0.170; Individual absorbancy values of sera for tested peptides, Day 42 ([3]; 20 μg per injection): 0.180 and 0.304 and 0.218 and 0.158 |
| SLLTEVETPIRNEWGLLTEVETPIRQYIKANSKFIGITE [PF2001] | – | – | – | – | – | – | – | – | – | – | – | – | – | – | – | – | – | – | – | – | viral inhibitory antibody to H3N2 after peptide boost [4]: boosted viral inhibitory antibody to H3N2; IgG antibody against live H1N1 virus (ELISA) [5]: IgG antibody rises were also induced; IgG titers to live H3N2 virus (ELISA) [6]: superior to two injections of M2e; IgG to live H3N2 virus after peptide boost of primed animals (ELISA) [6]: equivalent titer to group 6 |
| GNLFIAPGNLFIAPQYIKANSKFIGITEGNLFIAP [Peptide 5907] | 0.084 and 0.062 and 0.068 and 0.063 | 0.097 and 0.102 and 0.071 and 0.091 | 0.212 and 0.082 and 0.250 and 0.039 | 0.084 and 0.062 and 0.068 and 0.063 | 0.394 and 0.174 and 0.119 and 0.224 | 0.087 and 0.102 and 0.071 and 0.091 | 0.146 | 0.069 | 0.227 | 0.088 | 0.077 | 0.107 | 0.134 | 0.078 | 0.080 | 0.097 | 0.165 | 0.083 | 0.080 and 0.073 and 0.084 and 0.075 | 0.065 and 0.077 and 0.082 and 0.108 | IL-4 response of spleen cell supernatants (in words) [7]: below the result of the untreated control; Individual absorbancy values of sera for tested peptides, Day 14 ([3]; 5 μg per injection): 0.096 and 0.061 and 0.079 and 0.073; Individual absorbancy values of sera for tested peptides, Day 29 ([3]; 5 μg per injection): 0.160 and 0.098 and 0.099 and 0.071; Individual absorbancy values of sera for tested peptides, Day 42 ([3]; 5 μg per injection): 0.165 and 0.099 and 0.139; Individual absorbancy values of sera for tested peptides, Day 14 ([3]; 20 μg per injection): 0.069 and 0.072 and 0.088 and 0.090; Individual absorbancy values of sera for tested peptides, Day 29 ([3]; 20 μg per injection): 0.073 and 0.080 and 0.141 and 0.093; Individual absorbancy values of sera for tested peptides, Day 42 ([3]; 20 μg per injection): 0.114 and 0.161 and 0.230 and 0.156; immune response against Influenza H1N1, H3N2, and H5N1 [8]: raises an immune response |
